pIC50: −log10 of the molar value. Activity calls are given as the source filed them. The calls are words filed in the database; no cut-off is given here.
What was measured:
U-87 MG [1] = type: functional, cell-based; conditions: Homo sapiens; U-87MG ATCC; dose 10-40 mg/kg, route iv, time 35.0 day
U-87 MG [2] = type: functional, cell-based, U-87MG ATCC; conditions: Homo sapiens, 48 h
U-87MG ATCC [3] = test: Effect on intracellular NADP+ level in human U-87 MG cells harboring wildtype IDH1; type: functional, cell-based
[4] = Acute toxicity in ICR mouse at 400 mg/kg, po measured for 7 days; type: organism-based; conditions: in vivo, 168 h, time 7 day
U-87 MG [5] = test: Antiproliferative activity against human U-87 MG cells harboring wildtype IDH1 assessed as inhibition of cell growth incubated for 24 hrs by CCK8 assay; type: functional, cell-based, U-87MG ATCC
U-87 MG [6] = type: functional, organism-based; conditions: Homo sapiens; U-87MG ATCC; dose 10-40 mg/kg, route iv, time 35.0 day
[7] = Tmax in Sprague-Dawley rat at 1 mg/kg, iv measured after 24 hrs by LC-MS/MS analysis; type: ADME, organism-based; conditions: in vivo
[8] = biological target: Isocitrate dehydrogenase [NADP] cytoplasmic (Homo sapiens, UniProt O75874); test: Inhibition of wildtype IDH1 (unknown origin) using DL-isocitrate as substrate incubated for 60 mins in presence of NADP by fluorescence microplate reader
U-87 MG [9] = test: cells; conditions: Homo sapiens, 48 h, read-out: Activity
[10] = biological target: T1, Isocitrate dehydrogenase [NADP], mitochondrial (Homo sapiens, UniProt P48735); test: Inhibition of wildtype IDH2 (unknown origin) […] by Envision multimode plate reader analysis
T1 sequence (P48735 whole entry): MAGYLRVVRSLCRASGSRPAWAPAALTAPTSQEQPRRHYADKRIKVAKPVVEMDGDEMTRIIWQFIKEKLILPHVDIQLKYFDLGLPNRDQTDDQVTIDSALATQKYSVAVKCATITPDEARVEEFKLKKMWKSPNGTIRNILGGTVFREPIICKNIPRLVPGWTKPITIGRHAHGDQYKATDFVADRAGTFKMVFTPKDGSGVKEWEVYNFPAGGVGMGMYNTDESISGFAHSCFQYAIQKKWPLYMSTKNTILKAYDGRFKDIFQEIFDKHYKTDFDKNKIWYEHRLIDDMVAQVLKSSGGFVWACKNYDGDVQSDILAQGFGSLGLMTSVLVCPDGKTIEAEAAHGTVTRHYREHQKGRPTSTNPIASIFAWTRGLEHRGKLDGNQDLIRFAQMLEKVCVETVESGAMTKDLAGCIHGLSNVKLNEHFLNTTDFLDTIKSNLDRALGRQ

[11] = Cmax in Sprague-Dawley rat at 10 mg/kg, po measured after 24 hrs by LC-MS/MS analysis; type: ADME, organism-based; conditions: in vivo
U-87 MG [12] = type: functional, Homo sapiens, U-87MG ATCC; conditions: dose 2 µM; time 48 hrs
[13] = biological target: T2, Nicotinamide phosphoribosyltransferase (Homo sapiens, UniProt P43490); type: cell-based; conditions: U-87 MG, dose 0.5 µM, time 6.0 hrs
Target sequence in this assay (P43490 whole entry, looked up): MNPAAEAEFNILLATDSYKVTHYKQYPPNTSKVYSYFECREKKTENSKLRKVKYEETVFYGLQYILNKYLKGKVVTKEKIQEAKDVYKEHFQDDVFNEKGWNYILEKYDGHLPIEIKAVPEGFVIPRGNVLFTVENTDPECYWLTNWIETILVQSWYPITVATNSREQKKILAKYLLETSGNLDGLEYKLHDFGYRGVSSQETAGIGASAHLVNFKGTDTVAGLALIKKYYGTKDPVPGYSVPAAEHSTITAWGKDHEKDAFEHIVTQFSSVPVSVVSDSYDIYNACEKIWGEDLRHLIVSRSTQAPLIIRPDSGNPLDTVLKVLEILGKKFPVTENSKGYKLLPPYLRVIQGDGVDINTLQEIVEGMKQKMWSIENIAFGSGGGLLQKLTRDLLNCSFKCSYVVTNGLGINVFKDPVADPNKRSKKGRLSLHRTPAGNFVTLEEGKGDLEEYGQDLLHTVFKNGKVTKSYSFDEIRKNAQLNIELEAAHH

[14] = Half-life in Sprague-Dawley rat at 10 mg/kg, po measured after 24 hrs by LC-MS/MS analysis; type: ADME, organism-based; conditions: in vivo
[15] = Cmax in Sprague-Dawley rat at 1 mg/kg, iv measured after 24 hrs by LC-MS/MS analysis; type: ADME, organism-based; conditions: in vivo
U-87 MG [16] = type: functional, Homo sapiens, U-87MG ATCC; conditions: dose 0.5 µM; time 48 hrs
U-87 MG [17] = type: functional, U-87MG ATCC; conditions: Homo sapiens, time 48 hrs, read-out: Activity
[18] = biological target: T2, Nicotinamide phosphoribosyltransferase
Target sequence in this assay (P43490 whole entry): as the sequence (P43490 whole entry, looked up) above

U-87MG ATCC [19] = type: functional, cell-based; conditions: Homo sapiens, dose 0.5-2 µM, time 24.0 hrs
[20] = biological target: Isocitrate dehydrogenase [NADP], mitochondrial (Homo sapiens, UniProt P48735, R172K); test: Inhibition of IDH2 R172K mutant (unknown origin) using alpha-ketoglutarate as substrate incubated in presence of NADPH by Envision multimode plate reader analysis
[21] = biological target: Isocitrate dehydrogenase [NADP] cytoplasmic (Homo sapiens, UniProt O75874, R132C); test: Inhibition of recombinant IDH1 R132C mutant (unknown origin) using alpha-ketoglutarate as substrate incubated for 60 mins in presence of NADPH by fluorescence microplate reader
[22] = AUC in ICR mouse brain at 5 mg/kg, iv measured after 24 hrs by LC-MS/MS analysis; type: ADME, organism-based
U-87 MG [23] = test: Antiproliferative activity against human U-87 MG cells harboring wildtype IDH1 assessed as inhibition of cell growth incubated for 72 hrs by CCK8 assay; type: functional, cell-based, U-87MG ATCC
U-87MG ATCC [24] = type: functional, cell-based; conditions: Homo sapiens, dose 0.5-2 µM, time 24.0 hrs; remark: listed apart in the source
U-87MG ATCC [25] = type: functional, cell-based; conditions: Homo sapiens, dose 0.5-2 µM, time 24.0 hrs; remark: listed apart in the source
[26] = AUC (0 to infinity) in Sprague-Dawley rat at 1 mg/kg, iv measured after 24 hrs by LC-MS/MS analysis; type: ADME, organism-based; conditions: in vivo
U-87 MG [27] = type: functional, Homo sapiens, U-87MG ATCC; conditions: dose 0.5 µM; time 48 hrs; remark: listed apart in the source
[28] = biological target: Voltage-gated inwardly rectifying potassium channel KCNH2 (Homo sapiens, UniProt Q12809); test: Inhibition of human ERG in CHO cells incubated for 2.5 mins by Qpatch electrogram analysis; type: toxicity, cell-based
U-87MG ATCC [29] = type: functional, cell-based; conditions: Homo sapiens, dose 0.5-2 µM, time 24.0 hrs; remark: listed apart in the source
U-87 MG [30] = type: functional, Homo sapiens, U-87MG ATCC; conditions: dose 2 µM; time 48 hrs; remark: listed apart in the source
U-87 MG [31] = type: functional, cell-based, U-87MG ATCC; conditions: Homo sapiens, 72 h
U-87 MG [32] = type: functional, Homo sapiens, U-87MG ATCC; conditions: dose 20 mg/kg; route iv; time 35 day
[33] = Clearance in Sprague-Dawley rat at 1 mg/kg, iv measured after 24 hrs by LC-MS/MS analysis; type: ADME, organism-based; conditions: in vivo
U-87 MG [34] = type: functional, Homo sapiens, U-87MG ATCC; conditions: dose 10 mg/kg; route iv; time 35 day
U-87 MG [35] = type: functional, Homo sapiens, U-87MG ATCC; conditions: dose 2 µM; time 48 hrs; remark: listed apart in the source
[36] = Permeability of compound by PAMPA-BBB assay; type: ADME; conditions: read-out: permeability
U-87 MG [37] = type: functional, Homo sapiens, U-87MG ATCC; conditions: dose 0.5 µM; time 48 hrs; remark: listed apart in the source
[38] = biological target: Isocitrate dehydrogenase [NADP], mitochondrial (Homo sapiens, UniProt P48735, R140Q); test: Inhibition of IDH2 R140Q mutant (unknown origin) using alpha-ketoglutarate as substrate incubated in presence of NADPH by Envision multimode plate reader analysis
[39] = Ratio of drug concentration in ICR mouse brain to plasma at 5 mg/kg, iv measured after 24 hrs by LC-MS/MS analysis; type: ADME, organism-based; conditions: read-out: BPR
[40] = AUC (0 to t) in Sprague-Dawley rat at 10 mg/kg, po measured after 24 hrs by LC-MS/MS analysis; type: ADME, organism-based; conditions: in vivo
[41] = Oral bioavailability in Sprague-Dawley rat at 10 mg/kg measured after 24 hrs by LC-MS/MS analysis; type: ADME, organism-based; conditions: in vivo
U-87 MG [42] = type: functional, Homo sapiens, U-87MG ATCC; conditions: dose 40 mg/kg; route iv; time 35 day
[43] = AUC in ICR mouse plasma at 5 mg/kg, iv measured after 24 hrs by LC-MS/MS analysis; type: ADME, organism-based
[44] = Half-life in Sprague-Dawley rat at 1 mg/kg, iv measured after 24 hrs by LC-MS/MS analysis; type: ADME, organism-based; conditions: in vivo
U-87MG ATCC [45] = type: functional, cell-based; conditions: Homo sapiens, dose 0.5-2 µM, time 24.0 hrs; remark: listed apart in the source
U-87MG ATCC [46] = type: functional, cell-based; conditions: Homo sapiens, dose 0.5-2 µM, time 24.0 hrs; remark: listed apart in the source
[47] = biological target: T2, Nicotinamide phosphoribosyltransferase; type: cell-based; conditions: U-87 MG, dose 0.5-2 µM, time 48.0 hrs
Target sequence in this assay (P43490 whole entry, looked up): as above

U-87 MG [48] = type: functional, U-87MG ATCC; conditions: Homo sapiens, time 48 hrs, read-out: Activity; remark: listed apart in the source
U-87MG ATCC [49] = type: functional, cell-based; conditions: Homo sapiens, dose 0.5-2 µM, time 48.0 hrs
U-87MG ATCC [50] = type: functional, cell-based; conditions: Homo sapiens, dose 0.5-2 µM, time 48.0 hrs; remark: listed apart in the source
U-87 MG [51] = type: functional, organism-based; conditions: Homo sapiens; U-87MG ATCC; dose 10-40 mg/kg, route iv, time 35.0 day; remark: listed apart in the source
U-87 MG [52] = type: functional, cell-based, U-87MG ATCC; conditions: Homo sapiens, 24 h
[53] = AUC (0 to t) in Sprague-Dawley rat at 1 mg/kg, iv measured after 24 hrs by LC-MS/MS analysis; type: ADME, organism-based; conditions: in vivo
[54] = Tmax in Sprague-Dawley rat at 10 mg/kg, po measured after 24 hrs by LC-MS/MS analysis; type: ADME, organism-based; conditions: in vivo
U-87 MG [55] = test: Antiproliferative activity against human U-87 MG cells harboring wildtype IDH1 assessed as inhibition of cell growth incubated for 48 hrs by CCK8 assay; type: functional, cell-based, U-87MG ATCC
[56] = AUC (0 to infinity) in Sprague-Dawley rat at 10 mg/kg, po measured after 24 hrs by LC-MS/MS analysis; type: ADME, organism-based; conditions: in vivo

Sequence of Isocitrate dehydrogenase [NADP] cytoplasmic (Homo sapiens, UniProt O75874, R132C) (O75874 2-414 R132C limits assumed): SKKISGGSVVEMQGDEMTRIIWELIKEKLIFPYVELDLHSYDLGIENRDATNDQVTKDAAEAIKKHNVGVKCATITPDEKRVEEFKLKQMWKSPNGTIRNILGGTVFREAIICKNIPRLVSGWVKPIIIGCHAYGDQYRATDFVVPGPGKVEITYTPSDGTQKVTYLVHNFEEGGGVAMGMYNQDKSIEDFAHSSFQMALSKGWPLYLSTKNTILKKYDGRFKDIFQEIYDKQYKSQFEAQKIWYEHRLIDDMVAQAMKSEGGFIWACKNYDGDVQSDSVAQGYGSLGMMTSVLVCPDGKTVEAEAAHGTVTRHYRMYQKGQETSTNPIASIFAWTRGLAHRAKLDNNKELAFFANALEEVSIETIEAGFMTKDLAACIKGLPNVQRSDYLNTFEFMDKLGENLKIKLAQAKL
Sequence of Isocitrate dehydrogenase [NADP], mitochondrial (Homo sapiens, UniProt P48735, R172K) (P48735 40-452 R172K limits assumed): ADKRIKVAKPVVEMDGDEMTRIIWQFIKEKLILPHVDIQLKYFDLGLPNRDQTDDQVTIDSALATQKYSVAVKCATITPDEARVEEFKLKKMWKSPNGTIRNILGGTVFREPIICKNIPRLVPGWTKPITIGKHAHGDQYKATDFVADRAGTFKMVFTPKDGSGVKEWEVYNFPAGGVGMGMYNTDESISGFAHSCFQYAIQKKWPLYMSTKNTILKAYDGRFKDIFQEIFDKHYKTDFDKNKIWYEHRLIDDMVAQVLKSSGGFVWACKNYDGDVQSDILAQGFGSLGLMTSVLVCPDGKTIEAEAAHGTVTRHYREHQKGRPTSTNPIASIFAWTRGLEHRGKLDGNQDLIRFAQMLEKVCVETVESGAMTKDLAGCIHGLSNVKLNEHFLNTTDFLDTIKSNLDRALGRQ
Sequence of Voltage-gated inwardly rectifying potassium channel KCNH2 (Q12809 whole entry): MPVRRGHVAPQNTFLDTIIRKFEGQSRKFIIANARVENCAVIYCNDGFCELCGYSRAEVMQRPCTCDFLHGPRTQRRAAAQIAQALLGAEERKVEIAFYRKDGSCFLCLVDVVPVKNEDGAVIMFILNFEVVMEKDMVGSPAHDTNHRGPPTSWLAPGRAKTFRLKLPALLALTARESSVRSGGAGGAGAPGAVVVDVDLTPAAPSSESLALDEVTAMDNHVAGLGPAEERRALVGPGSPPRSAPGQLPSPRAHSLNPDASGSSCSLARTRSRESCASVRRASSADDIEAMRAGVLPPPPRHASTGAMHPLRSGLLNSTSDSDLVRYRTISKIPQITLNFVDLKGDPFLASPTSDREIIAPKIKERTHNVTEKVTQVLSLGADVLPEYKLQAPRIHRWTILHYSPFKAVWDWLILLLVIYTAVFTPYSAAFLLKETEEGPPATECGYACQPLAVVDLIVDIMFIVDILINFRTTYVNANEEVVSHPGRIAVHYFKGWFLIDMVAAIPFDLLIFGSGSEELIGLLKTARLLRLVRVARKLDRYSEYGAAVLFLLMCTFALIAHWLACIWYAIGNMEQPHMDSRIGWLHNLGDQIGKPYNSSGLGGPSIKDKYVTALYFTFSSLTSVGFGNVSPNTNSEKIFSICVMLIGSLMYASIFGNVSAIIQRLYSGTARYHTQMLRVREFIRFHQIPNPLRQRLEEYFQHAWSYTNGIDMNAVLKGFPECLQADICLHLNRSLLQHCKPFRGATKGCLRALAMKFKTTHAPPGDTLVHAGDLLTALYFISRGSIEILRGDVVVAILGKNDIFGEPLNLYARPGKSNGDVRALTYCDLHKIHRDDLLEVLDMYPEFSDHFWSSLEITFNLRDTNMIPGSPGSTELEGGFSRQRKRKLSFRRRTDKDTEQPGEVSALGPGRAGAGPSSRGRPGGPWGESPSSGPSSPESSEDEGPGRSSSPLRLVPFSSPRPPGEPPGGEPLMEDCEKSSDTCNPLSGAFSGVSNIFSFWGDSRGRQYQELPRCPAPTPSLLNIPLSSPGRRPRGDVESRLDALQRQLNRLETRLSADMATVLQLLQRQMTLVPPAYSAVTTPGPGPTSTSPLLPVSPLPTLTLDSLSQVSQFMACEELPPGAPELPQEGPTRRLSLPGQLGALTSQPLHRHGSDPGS
Sequence of Isocitrate dehydrogenase [NADP] cytoplasmic (Homo sapiens, UniProt O75874) (O75874 whole entry): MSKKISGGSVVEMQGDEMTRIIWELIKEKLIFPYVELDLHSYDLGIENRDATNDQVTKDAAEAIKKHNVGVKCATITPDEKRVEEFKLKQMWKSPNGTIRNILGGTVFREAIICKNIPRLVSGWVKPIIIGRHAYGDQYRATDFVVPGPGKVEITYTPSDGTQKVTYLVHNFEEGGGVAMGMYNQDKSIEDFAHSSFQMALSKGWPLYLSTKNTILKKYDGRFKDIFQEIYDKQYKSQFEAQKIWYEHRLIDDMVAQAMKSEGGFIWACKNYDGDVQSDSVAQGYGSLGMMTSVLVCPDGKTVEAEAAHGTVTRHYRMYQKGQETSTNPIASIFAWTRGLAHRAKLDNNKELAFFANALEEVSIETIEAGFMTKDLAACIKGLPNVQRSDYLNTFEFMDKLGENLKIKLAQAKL
Sequence of Isocitrate dehydrogenase [NADP], mitochondrial (Homo sapiens, UniProt P48735, R140Q) (P48735 40-452 R140Q limits assumed): as the sequence (P48735 40-452 R172K limits assumed) above, with R101Q, K133R counted along it

C[C@H](Nc1nccc(N2C(=O)OC[C@@H]2[C@H](C)F)n1)c1ccc(-c2ccc(NC(=O)COc3cccnc3)cc2)cc1
Activity (U-87 MG [1]): Dose-Dependent Effect | pIC50 (U-87 MG [2]): 6.33 | Activity (U-87MG ATCC [3]): inactive | Activity [4]: Non-Toxic | pIC50 (U-87 MG [5]): 5.90 | Activity (U-87 MG [6]): Active | Tmax [7]: 1.98 min | pIC50 [8]: 5.05 | viability at 1 µM (U-87 MG [9]): 35.5% | pIC50 [10]: < 4.00 | Cmax [11]: 867 ng/mL | Activity (U-87 MG [12]): 35.4% | Activity [13]: Active | half-life [14]: 124 min | Cmax [15]: 4070 ng/mL | Activity (U-87 MG [16]): 30.6% | viability at 0.5 µM (U-87 MG [17]): 44.6% | pIC50 [18]: 7.31 | Activity (U-87MG ATCC [19]): Active | pIC50 [20]: < 4.00 | pIC50 [21]: 7.19 | AUC at 24 h [22]: 15600 ng·h/mL | pIC50 (U-87 MG [23]): 6.38 | Activity (U-87MG ATCC [24]): Active | Activity (U-87MG ATCC [25]): Active | AUC(0-inf) [26]: 1940 ng·h/mL | Activity (U-87 MG [27]): 21.9% | pIC50 [28]: < 4.40 | Activity (U-87MG ATCC [29]): Active | Activity (U-87 MG [30]): 25.5% | pIC50 (U-87 MG [31]): 6.49 | MST (U-87 MG [32]): 30.5 days | clearance [33]: 4.33 mL/min/kg | MST (U-87 MG [34]): 25.5 days | Activity (U-87 MG [35]): 4.51% | Papp [36]: 4.07 ×10⁻⁶ cm/s | Activity (U-87 MG [37]): 2.84% | pIC50 [38]: < 4.00 | Kp at 24 h [39]: 0.76 | AUC(0-t) at 24 h [40]: 919 ng·h/mL | bioavailability [41]: 4.75% | MST (U-87 MG [42]): 34 days | AUC at 24 h [43]: 20300 ng·h/mL | half-life [44]: 69.6 min | Activity (U-87MG ATCC [45]): Active | Activity (U-87MG ATCC [46]): Active | inhibition [47]: Dose-Dependent Effect | viability at 2 µM (U-87 MG [48]): 34.7% | Activity (U-87MG ATCC [49]): inactive | Activity (U-87MG ATCC [50]): Dose-Dependent Effect | Activity (U-87 MG [51]): Active | pIC50 (U-87 MG [52]): 6.05 | AUC(0-t) at 24 h [53]: 1930 ng·h/mL | Tmax [54]: 45 min | pIC50 (U-87 MG [55]): 6.11 | AUC(0-inf) [56]: 921 ng·h/mL

Source: ChEMBL document CHEMBL5506022, “Discovery of Novel Dual Inhibitors Targeting Mutant IDH1 and NAMPT for the Treatment of Glioma with IDH1Mutation” (J Med Chem, 2024)
